Measured values reported in patent US8778974B2, “Trisubstituted 1,2,4 triazoles” (Janssen Pharmaceutica NV, priority 2008, dated 2014).

Target: T1, hα7-wt nAChR-expressing GH4Cl cells (Homo sapiens, UniProt P36544)
T1 construct: expressed in transfected cells
Assay: Patch-clamp current recording (whole-cell), potentiation of choline 1 mM response, PAM type
Format: cell-based
Set-up: key to Pam type: Type 0 compounds minimally enhance the effect size of the current elicited by 1 mM choline.; Type 1 compounds enhance the effect size of the current elicited by 1 mM choline but minimally alter the kinetics of the receptor.; Type 2 compounds enhance the effect size of the current elicited by 1 mM choline while reducing the rate and/or the extent of desensitization.; Type 3 compounds enhance the effect size of the current elicited by 1 mM choline. When tested at higher concentrations up to 10 μM they completely inhibit desensitization, in particular a 1 mM choline application of 250 milliseconds.; Type 4 compounds allow for an initial desensitization of the receptor followed by a re-opening of the receptor during agonist application
Details: for EC50: according to Ex. D.2, "<5" = no top plateau reached at maximal concentration, read-out: Potency (pEC50) (converted); for Pam type: patch-clamp current recording, 1 mM choline
Experimental: The compounds of the present invention are classified as type 1-4, based on qualitative kinetic properties, as determined by whole-cell voltage-clamp recordings. This classification is based on the effect of an α7 PAM compound, as described hereinbefore, on the signal elicited by an agonist application. In particular, said agonist is choline at a concentration of 1 mM. In a preferred experimental setting, said α7 PAM compound and choline are simultaneously applied to the cell, as described hereinafter. Desensitization is defined as the closure of the receptor upon activation during the application of the agonist in whole-cell voltage-clamp electrophysiology measurements seen as the reduction of the […] current after initial activation by the agonist.
The definition of the PAM types 1-4 is described hereinafter: • Type 0 compounds minimally enhance the effect size of the current elicited by 1 mM choline. • Type 1 compounds enhance the effect size of the current elicited by 1 mM choline but minimally alter the kinetics of the receptor. In particular, the rate and the extent of desensitization, elicited by the agonist, is not affected. The compound-modulated response to 1 mM choline, therefore, is a close to linear scaling of the 1 mM choline response in absence of the α7 PAM compound. • Type 2 compounds enhance the effect size of the current elicited by 1 mM choline while reducing the rate and/or the extent of desensitization. • Type 3 compounds enhance the effect size of the current elicited by 1 mM choline. […] At low-potency concentrations of the α7 PAM compound, the agonist-induced activation, which is followed by desensitization, can still be separated from the compound-induced re-opening as an initial inward current-maximum. At higher potency concentrations of the α7 PAM compound, the re-opening occurs faster than the closure due to desensitization so that the initial current-maximum disappears.
Patch-clamp Current Recording
Patch-clamp recording from mammalian cells has provided a powerful means of assessing the function of membrane-bound proteins thought to be subunits of ligand-gated ion channels. Activation of such proteins by endogenous or exogenous ligands cause opening of a pore associated with the receptor through which ions flow down their electrochemical gradient. In the case of the hα7-wt nAChR-expressing GH4Cl recombinant cell line the preferential permeability to calcium of this receptor means that calcium flows into the cell upon activation by ACh, choline and other nicotinic ligands giving rise to a calcium current. Since this receptor rapidly desensitizes in the presence of agonist it is important an application system is used which is capable of very rapid switching of solutions (<100 ms) to prevent partial or full desensitisation of receptor responses coincident with the time of agonist application. Consequently, a second convenient technique to assess the enhancement of nicotinic efficacy is patch-clamp recording from hα7-wt nAChR-expressing GH4Cl cells coupled with a rapid-application system.
• a) Assay buffers • The external recording solution consisted of 152 mM NaCl, 5 mM KCl, 1 mM MgCl2, 1 mM Calcium, 10 mM HEPES; pH 7.3. The internal recording solution consisted of 140 mM CsCl, 10 mM HEPES, 10 mM EGTA, 1 mM MgCl2, pH 7.3. • b) Patch-clamp recording was carried out using a Patch-clamp amplifier (Multiclamp 700A, Axon Instruments, Calif., USA). hα7-wt nAChR-expressing GH4Cl cells were patch-clamp in the whole cell configuration (Hamill et al, 1981) with a borosilicate glass electrode of 1.5-3 MΩ tip resistance when filled with the internal recording solution. Recordings were made on cells with membrane resistance >500 MΩ and more preferably 1GΩ and series resistance <15 MΩ with at least 60% series resistance compensation. […]

T1 sequence (P36544 23-502): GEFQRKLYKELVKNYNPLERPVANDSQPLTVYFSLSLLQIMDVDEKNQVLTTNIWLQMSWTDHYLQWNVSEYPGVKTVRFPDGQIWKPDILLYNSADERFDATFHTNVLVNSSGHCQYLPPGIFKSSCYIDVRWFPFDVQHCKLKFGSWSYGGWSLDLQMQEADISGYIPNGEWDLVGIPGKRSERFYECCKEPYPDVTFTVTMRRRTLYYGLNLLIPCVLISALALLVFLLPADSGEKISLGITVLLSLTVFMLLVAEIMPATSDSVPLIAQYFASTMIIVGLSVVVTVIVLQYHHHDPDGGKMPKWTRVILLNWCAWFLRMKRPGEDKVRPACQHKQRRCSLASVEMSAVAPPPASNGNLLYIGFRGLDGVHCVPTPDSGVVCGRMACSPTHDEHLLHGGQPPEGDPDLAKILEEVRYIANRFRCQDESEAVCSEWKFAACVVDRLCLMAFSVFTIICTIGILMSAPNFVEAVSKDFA

SMILES | EC50 [µM] | Pam type
CNC(=O)CCc1nc(Nc2ccc(F)c(F)c2)nn1-c1ccc2c(c1)OCCO2 [E2, 3-[(3,4-Difluorophenyl)amino]-1-(2,3-dihydro-1,4-benzodioxin-6-yl)-N-methyl-1H-1,2,4-triazole-5-propanamide] | 1.02 | 3
CN(C)C(=O)CCc1nc(Nc2ccc(F)c(F)c2)nn1-c1ccc2c(c1)OCCO2 [E3, 3-[(3,4-Difluorophenyl)amino]-1-(2,3-dihydro-1,4-benzodioxin-6-yl)-N,N-dimethyl-1H-1,2,4-triazole-5-propanamide] | 0.0437 | 4
Cc1ncccc1-n1nc(Nc2cccc(OC(F)(F)F)c2)nc1CCC(=O)N(C)C [E5, N,N-Dimethyl-1-(2-methyl-3-pyridinyl)-3-[[3-(trifluoromethoxy)phenyl]amino]-1H-1,2,4-triazole-5-propanamide] | 1.17 | 4
Cc1cc(-n2nc(Nc3ccc(F)c(C(F)(F)F)c3)nc2CCO)ccn1 [E16] | 0.525 | 
CNC(=O)Cc1nc(Nc2ccc(F)c(F)c2)nn1-c1ccc2c(c1)OCCO2 [E36] | 1.74 | 4
CNC(=O)CCc1nc(Nc2ccc(F)c(F)c2)nn1-c1ccc(OC)cc1 [E43] | 2 | 2
CNC(=O)CCc1nc(Nc2ccc(F)c(C(F)(F)F)c2)nn1-c1ccc(OC)cc1 [E44] | 0.661 | 
CNC(=O)CCc1nc(Nc2ccc(F)c(C(F)(F)F)c2)nn1-c1ccc(OC)c(OC)c1 [E46] | 1.02 | 
CNC(=O)CCc1nc(Nc2ccc(F)c(F)c2)nn1-c1cccnc1 [E48] | > 10 | 
CNC(=O)CCc1nc(Nc2ccc(F)c(F)c2)nn1-c1ccncc1 [E52] | > 30.2 | 
CNC(=O)CCc1nc(Nc2ccc(F)c(C(F)(F)F)c2)nn1-c1ccc2c(c1)OCCO2 [E55] | 0.525 | 4
COc1ccc(-n2nc(Nc3ccc(F)c(C(F)(F)F)c3)nc2CCC(=O)N(C)C)cc1 [E62] | 0.0302 | 4
COc1ccc(-n2nc(Nc3ccc(F)c(F)c3)nc2CCC(=O)N(C)C)cc1 [E63] | 0.0603 | 4
COc1ccc(-n2nc(Nc3ccc(F)c(F)c3)nc2CCC(=O)N(C)C)cc1OC [E64] | 0.525 | 4
COc1ccc(-n2nc(Nc3ccc(F)c(C(F)(F)F)c3)nc2CCC(=O)N(C)C)cc1OC [E65] | 0.0708 | 4
CN(C)C(=O)CCc1nc(Nc2ccc(F)c(F)c2)nn1-c1ccc(OC(F)(F)F)cc1 [E66] | 0.24 | 4
CN(C)C(=O)CCc1nc(Nc2ccc(F)c(F)c2)nn1-c1ccncc1 [E67] | 0.447 | 4
CN(C)C(=O)CCc1nc(Nc2ccc(F)c(C(F)(F)F)c2)nn1-c1ccncc1 [E68] | 0.105 | 
CN(C)C(=O)CCc1nc(Nc2cccc(OC(F)(F)F)c2)nn1-c1ccncc1 [E69] | 0.324 | 
CN(C)C(=O)CCc1nc(Nc2cccc(OC(F)(F)F)c2)nn1-c1cccnc1 [E71] | 0.617 | 4
CN(C)C(=O)CCc1nc(Nc2ccc(F)c(C(F)(F)F)c2)nn1-c1cccnc1 [E72] | 0.339 | 
CN(C)C(=O)CCc1nc(Nc2ccc(F)c(C(F)(F)F)c2)nn1-c1ccc2c(c1)OCCO2 [E77] | 0.0398 | 4
O=C(CCc1nc(Nc2cccc(OC(F)(F)F)c2)nn1-c1cccnc1)N1CCCC1 [E78] | 0.309 | 

SMILES | EC50 [µM] | Pam type
O=C(CCc1nc(Nc2cccc(OC(F)(F)F)c2)nn1-c1cccnc1)N1CCC(O)C1 (stereo not shown) [E79] | 1.26 | 
CCOC(=O)CCc1nc(Nc2cccc(OC(F)(F)F)c2)nn1-c1cccnc1 [E108] | 1.35 | 
CCOC(=O)CCc1nc(Nc2ccc(F)c(F)c2)nn1-c1ccc2c(c1)OCCO2 [E114] | 0.151 | 
CCOC(=O)CCc1nc(Nc2ccc(F)c(C(F)(F)F)c2)nn1-c1ccc2c(c1)OCCO2 [E115] | 0.158 | 
Cc1ccc(-n2nc(Nc3ccc4c(c3)OC(F)(F)O4)nc2CCC(=O)N(C)C)cn1 [E117] | 0.191 | 4
CC[C@H](O)Cc1nc(Nc2ccc(F)c(F)c2F)nn1-c1cc(C)nc(C)c1 [E127, (alphaS)-1-(2,6-dimethyl-4-pyridinyl)-alpha-ethyl-3-[(2,3,4-trifluorophenyl)amino]-1H-1,2,4-triazole-5-ethanol] | 0.269 | 2
CC[C@H](O)Cc1nc(Nc2ccc(F)c(F)c2F)nn1-c1ccnc(C)c1 [E130, (alphaS)-alpha-ethyl-1-(2-methyl-4-pyridinyl)-3-[(2,3,4-trifluorophenyl)amino]-1H-1,2,4-triazole-5-ethanol] | 0.269 | 2
CCNc1cc(-n2nc(Nc3ccc(F)c(F)c3)nc2C[C@@H](O)CC)ccn1 [E136] | 0.155 | 3
CN(C)C(=O)CCc1nc(Nc2cc(F)c(F)c(Br)c2)nn1-c1ccc2c(c1)OCCO2 [E151] | 0.038 | 4
Cc1cc(-n2nc(Nc3cccc(Cl)c3F)nc2CC(=O)NCC2CC2)cc(C)n1 [E154] | 0.219 | 2
COc1ccc(-n2nc(Nc3cc(F)c(F)c(Br)c3)nc2CCC(=O)N(C)C)cc1 [E155] | 0.0288 | 1
CCNC(=O)Cc1nc(Nc2ccc3c(c2)OC(F)(F)O3)nn1-c1cc(C)ncc1C [E163] | 2.51 | 4
Cc1cc(-n2nc(Nc3ccc(F)c(F)c3)nc2CC(=O)NC2CCC2)cc(C)n1 [E169] | 0.295 | 2
CN(C)C(=O)CCc1nc(Nc2cccc(OC(F)(F)F)c2)nn1-c1ccc2c(c1)OCCO2 [E170] | 0.0398 | 4
CC[C@H](O)Cc1nc(Nc2cccc(Cl)c2F)nn1-c1cc(C)nc(C)c1 [E172] | 0.302 | 2
CN(C)C(=O)CCc1nc(Nc2ccc3c(c2)OC(F)(F)O3)nn1-c1ccc2c(c1)OCCO2 [E176] | 0.0269 | 4
COc1ccc(-n2nc(Nc3ccc4c(c3)OC(F)(F)O4)nc2CCC(=O)N(C)C)cc1 [E178] | 0.0363 | 4
CC[C@H](O)Cc1nc(Nc2cc(F)cc(OC)c2)nn1-c1ccnc(C)c1 [E186, (alphaS)-alpha-ethyl-3-[(3-fluoro-5-methoxyphenyl)amino]-1-(2-methyl-4-pyridinyl)-1H-1,2,4-triazole-5-ethanol] | 1.02 | 4
CC[C@H](O)Cc1nc(Nc2cc(F)cc(OC)c2)nn1-c1cc(C)nc(C)c1 [E190, (alphaS)-1-(2,6-dimethyl-4-pyridinyl)-alpha-ethyl-3-[(3-fluoro-5-methoxyphenyl)amino]-1H-1,2,4-triazole-5-ethanol] | 0.398 | 2
CC[C@H](O)Cc1nc(Nc2ccc(OC)cc2)nn1-c1cc(C)nc(C)c1 [E203] | 1.35 | 2
CC[C@H](O)Cc1nc(Nc2cccc(C(F)(F)F)c2)nn1-c1ccnc(C)c1 [E204] | 0.562 | 0
CC[C@H](O)Cc1nc(Nc2cc(Cl)cc(OC)c2)nn1-c1cc(C)nc(C)c1 [E205, (alphaS)-3-[(3-chloro-5-methoxyphenyl)amino]-1-(2,6-dimethyl-4-pyridinyl)-alpha-ethyl-1H-1,2,4-triazole-5-ethanol] | 0.155 | 2
CC[C@H](O)Cc1nc(Nc2cc(Cl)cc(OC)c2)nn1-c1ccnc(C)c1 [E206] | 0.17 | 4
